Measured values from paper PMC7435865, “Antinociceptive and Cytotoxic Activity of Opioid Peptides with Hydrazone and Hydrazide Moieties at the C-Terminus” (Molecules, 2020).
Where two headings read alike, the source gives them in different places. Where a SMILES comes first, the peptide text is derived from it. [ ]: non-standard residue; d: D form. The star is where a group is joined. X3 = FC(F)(F)c1cc(C=NN*)cc(C(F)(F)F)c1

Columns and labels:
µ opioid receptor (MOR) = target: T1, µ opioid receptor (MOR) (Rattus norvegicus, UniProt P33535); experiment: competitive radioligand binding, [3H]DAMGO displacement in rat brain homogenate
T1 construct: from tissue; host or cells: rat brain (membrane fractions of homogenate)
Method: (§1) The synthesized compounds were assayed for binding affinity to the μ- and δ-opioid (MOR and DOR, respectively), as well as to the neurokinin-1 receptors (NK1R). The determinations were performed in rat brain homogenates by competitive displacement of selective radioligands. The results are shown in Table 2 as the half-maximal inhibitory concentration (IC50) with the standard error of the mean (SEM).
(§2) The binding affinity of compounds 1b–6a for MOR, DOR, and NK1R was determined in competitive radioligand binding assays according to the method previously described. The specific radioligands were [^3H]DAMGO (DAMGO, [Tyr^1-3,5-^3H])), [^3H][Ile^5,6]DELT II ([Ile^5,6]Deltorphin II, [Tyr^l-3,5-^3H]) and [^3H]Substance P (Substance P, [Leu-3,4,5-^3H]), for experiments with MOR, DOR, and NK1R, respectively. The first two were obtained from Isotope Laboratory, Biological Research Centre, Institute of Biochemistry (Szeged, Hungary), whereas the latter was purchased from Perkin Elmer (Perkin Elmer Inc., Krakow, Poland). Membrane fractions of rat brain homogenate were incubated at 25 °C for 60 min in the presence of radioligands (0.5 nM) specific for each receptor and increasing concentrations of the tested compounds. To measure non-specific binding, 10 μM naloxone was used as the competitor for opioid receptors and 10 μM cold Substance P was used for NK1R. The reactions were carried out in assay buffer containing Tris-HCl (pH 7.4) with an addition of bovine serum albumin (BSA) and protease inhibitors (bacitracin, bestatin, captopril). After the incubation, the binding reactions were terminated by rapid filtration with M-24 Cell Harvester (Brandel/USA) through GF/B Whatman glass fiber strips (presoaked with 0.5% PEI in order to minimize non-specific binding). Radioactivity retained on the filters was measured in MicroBeta LS on a Trilux scintillation counter (PerkinElmer, Santa Clara, CA, USA). The experiments were repeated at least two times in duplicate. The IC50 value for each compound was determined using GraphPad Prism.

δ opioid receptor (DOR) = target: T2, δ opioid receptor (DOR) (Rattus norvegicus, UniProt P33533); experiment: competitive radioligand binding, [3H][Ile5,6]Deltorphin II displacement in rat brain homogenate
T2 construct: from tissue; host or cells: rat brain (membrane fractions of homogenate)
Method: as §1, §2

[1] = target: T3, neurokinin-1 receptor (NK1R) (Rattus norvegicus, UniProt P14600); experiment: competitive radioligand binding, [3H]Substance P displacement in rat brain homogenate
T3 construct: from tissue; host or cells: rat brain (membrane fractions of homogenate)
Method: as §1, §2

[2] = test system: MeW155 human melanoma cells; experiment: melanoma cell number in culture after incubation with compound; type: cell-based; details: 50 µM, 96 h incubation
Method: The determination was performed by counting the cells of the MeW155 cell line after incubating them with 50 µM of the tested compounds.
The cells were plated in 24-well plates (5000 cells per well) and incubated for 24 h in Eagle’s medium containing 10% fetal bovine serum and 1% solution of penicillin and streptomycin. […] Control cells were treated with 1% DMSO only. After 96 h of incubation, the cell suspension was first lysed in lysis buffer (ReagentA, ChemoMetec A/S) and then stabilized in stabilization buffer (ReagentB, ChemoMetec A/S). The number of […] was quantified in a propidium iodide cassette with the use of a NucleoCounter® NC-100™ (ChemoMetec A/S) cell counter. The tests were performed in triplicate. The results were normalized so that the values obtained for the control were 100%.

MOR = details: cited from earlier work
DOR = target: DOR; parameters: method as in PMID 17927164; details: cited from earlier work
male Wistar rats = experiment: tail flick test after intrathecal administration; type: in vivo, rat; details: for ED50 ± SEM: tail flick, i.t., n = 4–8
Method: Analgesic activity of compounds 1b–1d was measured in the tail flick test after intrathecal administration to rats, according to a procedure thoroughly described before. First, adult male Wistar rats weighing 200–250 g were prepared for intrathecal administration by the catherization method described previously by Yaksh and Rudy. Each experimental group consisted of 4–8 rats. Next, spinally mediated analgesia was assessed in the tail flick test utilizing the Plantar Test and Tail Flick Analgesia Meter apparatus (IITC Life Science Inc., Los Angeles, CA, USA). Withdrawal latency was measured in triplicate. The cut-off latencies were set at 7 s to avoid burns. The measurements were performed before the administration of the tested compound (time 0) and 5, 15, 30, 60, and 120 min after injection. The control group received injections of 0.9% NaCl. Data from in vivo studies are presented as means ± SEM and were analyzed using two-way repeated measures of ANOVA followed by Dunnett-corrected multiple comparisons. Significance was defined as * p < 0.033, ** p < 0.002, *** p < 0.001. Data were analyzed using GraphPad Prism. The responses were expressed as a percentage of a maximum possible effect (%MPE), calculated as ((T1 − T0)/(T2 − T0)) × 100, where T0 and T1 are latencies before and after drug injection, respectively, and T2 is the cut-off time. All experimental procedures were approved by The Local Committee for Ethics in Animal Experiments, permission no. 46/2013.

[3] = 0.5 nmol/rat i.t., 15 min after injection

T3 sequence (P14600 whole entry): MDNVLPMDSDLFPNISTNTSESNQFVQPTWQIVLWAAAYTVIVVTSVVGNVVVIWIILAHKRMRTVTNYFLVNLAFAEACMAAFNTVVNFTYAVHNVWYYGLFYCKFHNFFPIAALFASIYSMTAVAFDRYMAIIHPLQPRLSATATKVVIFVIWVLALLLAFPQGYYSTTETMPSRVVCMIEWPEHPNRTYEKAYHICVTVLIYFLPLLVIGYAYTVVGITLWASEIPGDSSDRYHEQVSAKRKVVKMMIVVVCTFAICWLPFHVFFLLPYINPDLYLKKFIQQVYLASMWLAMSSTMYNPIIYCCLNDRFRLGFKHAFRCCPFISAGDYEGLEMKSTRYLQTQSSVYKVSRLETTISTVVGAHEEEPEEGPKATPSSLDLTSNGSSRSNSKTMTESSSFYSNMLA
T2 sequence (P33533 whole entry): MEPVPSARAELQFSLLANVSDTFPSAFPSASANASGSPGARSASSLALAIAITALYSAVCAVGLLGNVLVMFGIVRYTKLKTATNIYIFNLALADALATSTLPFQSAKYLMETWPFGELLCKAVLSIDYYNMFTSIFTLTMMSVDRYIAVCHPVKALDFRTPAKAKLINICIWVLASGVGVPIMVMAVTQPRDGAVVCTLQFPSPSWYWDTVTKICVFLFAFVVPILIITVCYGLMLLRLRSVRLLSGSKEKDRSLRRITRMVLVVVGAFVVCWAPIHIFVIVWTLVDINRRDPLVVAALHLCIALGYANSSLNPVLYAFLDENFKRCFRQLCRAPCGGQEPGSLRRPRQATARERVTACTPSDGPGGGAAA
T1 sequence (P33535 whole entry): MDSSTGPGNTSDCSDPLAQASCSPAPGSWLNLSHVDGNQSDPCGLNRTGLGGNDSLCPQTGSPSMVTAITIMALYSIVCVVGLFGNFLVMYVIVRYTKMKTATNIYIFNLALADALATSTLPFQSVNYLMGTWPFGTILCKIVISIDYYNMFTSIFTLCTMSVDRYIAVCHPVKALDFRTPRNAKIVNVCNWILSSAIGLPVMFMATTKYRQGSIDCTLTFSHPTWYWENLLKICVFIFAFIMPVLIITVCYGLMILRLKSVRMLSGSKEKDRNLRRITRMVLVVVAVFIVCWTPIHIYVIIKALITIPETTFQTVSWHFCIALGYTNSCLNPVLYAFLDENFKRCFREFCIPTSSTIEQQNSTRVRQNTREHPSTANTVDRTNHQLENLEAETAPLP

Molecule: N[C@@H](Cc1ccc(O)cc1)C(=O)N1CCC[C@H]1C(=O)N[C@@H](Cc1ccccc1)C(=O)N[C@@H](Cc1ccccc1)C(=O)NN=Cc1cc(C(F)(F)F)cc(C(F)(F)F)c1 [5a, H-Tyr-Pro-Phe-Phe-NH-N=CH-3,5-(CF3)2Ph]
- IC50 (µ opioid receptor (MOR)): 28.5 ± 9.41 nM
- IC50 (δ opioid receptor (DOR)): > 1000 nM
- DOR binding (in words) (δ opioid receptor (DOR); rat brain homogenate): do not exhibit any appreciable DOR binding
- IC50 [1]: > 1000 nM
- effect on number of melanoma cells (in words) [2]: significantly decrease the number of melanoma cells
- number of MeW155 cells, % of the control value [2]: ~ 2 % of the control

Molecule: C[C@@H](O[C@H]1OCCN(Cc2n[nH]c(=O)[nH]2)[C@H]1c1ccc(F)cc1)c1cc(C(F)(F)F)cc(C(F)(F)F)c1 [aprepitant, reference compound]
- number of MeW155 cells, % of the control value [2]: 78 ± 4 % of the control

Molecule: H-Y[dA]FF-NH2 [TAPP]
- IC50 (MOR; determined in the authors' laboratory): 5.1 nM

Molecule: C[C@@H](NC(=O)[C@@H](N)Cc1ccc(O)cc1)C(=O)N[C@@H](Cc1c[nH]c2ccccc12)C(=O)NN=Cc1cc(C(F)(F)F)cc(C(F)(F)F)c1 [4a, H-Tyr-D-Ala-Trp-NH-N=CH-3,5-(CF3)2Ph]
- IC50 (µ opioid receptor (MOR)): 118 ± 40.2 nM
- IC50 (δ opioid receptor (DOR)): 621 ± 65.2 nM
- IC50 [1]: > 1000 nM
- effect on number of melanoma cells (in words) [2]: significantly decrease the number of melanoma cells
- number of MeW155 cells, % of the control value [2]: 65 ± 10 % of the control

Molecule: C[C@@H](NC(=O)[C@@H](N)Cc1ccc(O)cc1)C(=O)NCC(=O)N[C@@H](Cc1c[nH]c2ccccc12)C(=O)NN=Cc1cc(C(F)(F)F)cc(C(F)(F)F)c1 [2a, H-Tyr-D-Ala-Gly-Trp-NH-N=CH-3,5-(CF3)2Ph] (H-Y[dA]GW-X3)
- IC50 (µ opioid receptor (MOR)): 112 ± 16.9 nM
- MOR IC50 ratio 2a and 1a (µ opioid receptor (MOR); ratio of IC50 of hydrazones 2a and 1a): about 10
- IC50 (δ opioid receptor (DOR)): 914 ± 43.5 nM
- IC50 [1]: > 1000 nM
- effect on number of melanoma cells (in words) [2]: significantly decrease the number of melanoma cells
- number of MeW155 cells, % of the control value [2]: 20 ± 4 % of the control

Molecule: C[C@@H](NC(=O)[C@@H](N)Cc1ccc(O)cc1)C(=O)N[C@@H](Cc1c[nH]c2ccccc12)C(=O)NNC(=O)c1cc(C(F)(F)F)cc(C(F)(F)F)c1 [4b, H-Tyr-D-Ala-Trp-NH-NH-C(=O)-3,5-(CF3)2Ph]
- IC50 (µ opioid receptor (MOR); rat brain homogenate, [3H]DAMGO 0.5 nM, read-out: MOR IC50 ± SEM): > 1000 nM
- IC50 (δ opioid receptor (DOR); rat brain homogenate, [3H][Ile5,6]DELT II 0.5 nM, read-out: DOR IC50 ± SEM): > 1000 nM
- IC50 ([1]; rat brain homogenate, [3H]Substance P 0.5 nM, read-out: NK1R IC50 ± SEM): > 1000 nM
- effect on number of melanoma cells (in words) [2]: no effect

Molecule: H-Tyr-D-Ala-Gly-Phe-NH2
- Ki (MOR; read-out: MOR Ki): 2.8 nM
- Ki (DOR): 300 nM

Molecule: H-Tyr-D-Ala-Gly-Phe-NH-NH2
- IC50 (MOR): 4.7 nM

Molecule: H-Tyr-Pro-Phe-NH2
- Ki (MOR; read-out: MOR inhibition constant Ki): 46.3 nM

Molecule: C[C@@H](NC(=O)[C@@H](N)Cc1ccc(O)cc1)C(=O)NCC(=O)N[C@@H](Cc1ccccc1)C(=O)NNC(=O)NN=Cc1cc(C(F)(F)F)cc(C(F)(F)F)c1 [1d, H-Tyr-D-Ala-Gly-Phe-NH-NH-C(=O)-NH-N=CH-3,5-(CF3)2Ph]
- IC50 (µ opioid receptor (MOR)): 4.73 ± 0.02 nM
- IC50 (δ opioid receptor (DOR)): 44 ± 2.75 nM
- IC50 [1]: > 1000 nM
- area under the time course curve (AUC) of analgesic effect (male Wistar rats; 0.5 nmol/rat i.t.): 5732 ± 1161 units
- antinociceptive effect, % of maximal possible effect (male Wistar rats; [3]): ~ 80 % MPE
- antinociceptive effect, % of maximal possible effect (male Wistar rats; 2 nmol/rat i.t., 120 min after administration): 39 ± 10 % MPE
- antinociceptive effect, % of maximal possible effect (male Wistar rats; 4 nmol/rat i.t., 15 min): 99 ± 7 % MPE
- ED50 ± SEM (male Wistar rats): 0.32 ± 0.04 nmol/rat
- effect on number of melanoma cells (in words) [2]: no effect

Molecule: C[C@@H](NC(=O)[C@@H](N)Cc1ccc(O)cc1)C(=O)NCC(=O)N[C@@H](Cc1ccccc1)C(=O)NNC(=O)Cc1cc(C(F)(F)F)cc(C(F)(F)F)c1 [1c, H-Tyr-D-Ala-Gly-Phe-NH-NH-C(=O)-CH2-3,5-(CF3)2Ph]
- IC50 (µ opioid receptor (MOR)): 5.25 ± 1.14 nM
- IC50 (δ opioid receptor (DOR)): 162 ± 8.75 nM
- IC50 [1]: > 1000 nM
- area under the time course curve (AUC) of analgesic effect (male Wistar rats; 0.5 nmol/rat i.t.): 1417 ± 730.1 units
- antinociceptive effect, % of maximal possible effect (male Wistar rats; [3]): 31 ± 6 % MPE
- antinociceptive effect, % of maximal possible effect (male Wistar rats; 1 nmol/rat i.t., 15 min): 85 ± 7 % MPE
- ED50 ± SEM (male Wistar rats): 0.56 ± 0.04 nmol/rat
- effect on number of melanoma cells (in words) [2]: no effect
